# Target: T1, human 5-HT6 receptor (Homo sapiens, UniProt P50406)
# T1 construct: host or cells: CHO-K1 cells, stably transfected; membranes prepared in house
# Assay: Human 5-HT6 Receptor Binding Assay ([3H]LSD displacement, scintillation beads)
# Details: membranes of CHO-K1 cells with recombinant human 5-HT6, 4 nM [3H]LSD; Table 1, class symbols; read-out: h5-HT6 (Ki)
# T1 sequence (P50406 whole entry): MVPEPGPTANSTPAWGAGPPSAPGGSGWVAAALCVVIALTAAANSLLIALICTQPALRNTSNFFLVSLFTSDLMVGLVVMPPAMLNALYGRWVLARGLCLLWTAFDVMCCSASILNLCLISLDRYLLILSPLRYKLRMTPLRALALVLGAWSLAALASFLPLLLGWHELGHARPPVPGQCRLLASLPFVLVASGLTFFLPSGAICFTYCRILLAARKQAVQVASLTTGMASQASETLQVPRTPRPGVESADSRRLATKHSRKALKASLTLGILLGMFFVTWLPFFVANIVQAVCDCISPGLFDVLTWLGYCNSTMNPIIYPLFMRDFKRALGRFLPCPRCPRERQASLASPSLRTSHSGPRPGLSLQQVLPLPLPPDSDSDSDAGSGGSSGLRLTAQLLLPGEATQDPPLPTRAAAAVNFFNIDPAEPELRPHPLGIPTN
row,SMILES,Ki [nM]
1,CC12CCNCC1Oc1cc(S(=O)(=O)c3ccc(F)cc3)ccc12 (stereo not shown) [Example 356],500 to 1000
2,O=S(=O)(NC1Cc2ccccc2C1)c1ccc2c(c1)C1CCNCC1O2 (stereo not shown) [Example 857],> 1000
3,O=S(=O)(c1ccc2c(c1)OC1CNCCC21)c1cccnc1F (stereo not shown) [Example 398],< 500
4,COc1cc(OC)cc(S(=O)(=O)c2ccc3c(c2)OC2CNCCC32C)c1 (stereo not shown) [Example 487],< 500
5,"CC12CCNCC1Oc1cc(S(=O)(=O)c3ccccn3)ccc12 (racemic) [Example 8, 4a-methyl-7-(pyridin-2-ylsulfonyl)-1,2,3,4,4a,9a-hexahydro[1]benzofuro[2,3-c]pyridine]",> 1000
6,O=S(=O)(Oc1ccc2c(c1)C1CCNCC1O2)c1cccc(F)c1 (stereo not shown) [Example 701],> 1000
7,CN(Cc1ccccc1)S(=O)(=O)c1ccc2c(c1)C1CCNCC1O2 (stereo not shown) [Example 858],> 1000
8,CC12CCNCC1Oc1ccc(OS(=O)(=O)Cc3cccc(C(F)(F)F)c3)cc12 (stereo not shown) [Example 788],< 500
9,"CC(C)Oc1cccc(S(=O)(=O)c2ccc3c(c2)OC2CNCCC32C)c1 (single isomer, unassigned) [Example 21, 4a-methyl-7-{[3-(propan-2-yloxy)phenyl]sulfonyl}-1,2,3,4,4a,9a-hexahydro[1]benzofuro[2,3-c]pyridine]",< 500
10,CC12CCNCC1Oc1ccc(OS(=O)(=O)CCc3ccccc3)cc12 (stereo not shown) [Example 785],> 1000
11,CC12CCNCC1Oc1ccc(OS(=O)(=O)c3ccccc3C(F)(F)F)cc12 (stereo not shown) [Example 779],> 1000
12,COc1cccc(NS(=O)(=O)c2ccc3c(c2)C2CCNCC2O3)c1 (stereo not shown) [Example 850],> 1000
13,CC12CCNCC1Oc1cc(S(=O)(=O)c3cccc(F)c3F)ccc12 (stereo not shown) [Example 488],< 500
14,O=S(=O)(c1cc[n+]([O-])cc1)c1ccc2c(c1)OC1CNCCC21 (stereo not shown) [Example 329],> 1000
15,[O-][S+](c1ccc2c(c1)OC1CNCCC21)c1cc(F)ccc1F (stereo not shown) [Example 142],> 1000
16,COc1cccc(S(=O)(=O)Oc2ccc3c(c2)C2(C)CCNCC2O3)c1 (stereo not shown) [Example 761],> 1000
17,CC12CCNCC1Oc1cc(S(=O)(=O)c3cc(F)cc(F)c3)ccc12 (stereo not shown) [Example 359],< 500

row,SMILES,Ki [nM]
1,O=S(=O)(Oc1ccc2c(c1)C1CCNCC1O2)c1ccc(F)cc1 (stereo not shown) [Example 702],> 1000
2,CN(C)c1cccc(S(=O)(=O)c2ccc3oc4c(c3c2)CCNC4)c1 [Example 355],> 1000
3,COc1cccc(S(=O)(=O)Oc2ccc3c(c2)C2CCNCC2O3)c1 (stereo not shown) [Example 708],500 to 1000
4,CC(C)Oc1cc(F)cc(S(=O)(=O)c2ccc3c(c2)OC2CNCCC32C)c1 (stereo not shown) [Example 427],< 500
5,O=S(=O)(CC1CCCCC1)Oc1ccc2c(c1)OC1CNCCC21 (stereo not shown) [Example 690],> 1000
6,"O=S(=O)(c1ccccc1)c1ccc2c(c1)C1CCNCC1O2 (stereo not shown) [Example 337, 6-(phenylsulfonyl)-1,2,3,4,4a,9a-hexahydro[1]benzofuro[2,3-c]pyridine]",> 1000
7,CC12CCNCC1Oc1ccc(OS(=O)(=O)c3ccc(-n4cccn4)cc3)cc12 (stereo not shown) [Example 776],> 1000
8,[O-][S+](c1ccc2c(c1)OC1CNCCC21)c1cccnc1F (stereo not shown) [Example 383],> 1000
9,O=S(=O)(Nc1ccc2c(c1)C1CCNCC1O2)c1ccc(Cl)cc1 (stereo not shown) [Example 823],< 500
10,O=S(=O)(Oc1ccc2c(c1)OC1CNCCC21)c1csc(C(F)(F)F)c1-c1ccccc1 (stereo not shown) [Example 686],< 500
11,"CC1(C)CNC2(CCOCC2)c2oc3cc([S+]([O-])c4cccc(F)c4)ccc3c21 (racemic) [Example 47, 7-[(3-fluorophenyl)sulfinyl]-4,4-dimethyl-2′,3,3′,4,5′,6′-hexahydro-2H-spiro[1-benzofuro[2,3-c]pyridine-1,4′-pyran]]",< 500
12,O=S(=O)(Oc1ccc2c(c1)OC1CNCCC21)c1csc2ccccc12 (stereo not shown) [Example 665],< 500
13,COc1cc(OCC2CC2)cc(S(=O)(=O)c2ccc3c(c2)OC2CNCCC32)c1 (stereo not shown) [Example 585],< 500
14,"O=S(=O)(c1ccc(OC(F)(F)F)cc1)c1ccc2c3c(oc2c1)CNCC3 [Example 227, 7-{[4-(trifluoromethoxy)phenyl]sulfo-nyl}-1,2,3,4-tetrahydro[1]benzofuro[2,3-c]pyridine]",< 500
15,O=S(=O)(c1ccc2c(c1)OC1CNCCC21)c1cc(F)cc(F)c1F (stereo not shown) [Example 412],< 500
16,Cc1c(Cl)cccc1S(=O)(=O)Oc1ccc2c(c1)C1CCNCC1O2 (stereo not shown) [Example 718],< 500
17,"O=S(=O)(c1ccc2c3c(oc2c1)CNCC3)c1cc(Cl)ccc1Cl [Example 215, 7-[(2,5-dichlorophenyl)sulfonyl]-1,2,3,4-tetrahydro[1]benzofuro[2,3-c]pyridine]",< 500

# Continued, values first:
row,Ki [nM],SMILES
1,< 500,Cc1cccc(S(=O)(=O)Oc2ccc3c(c2)OC2CNCCC32)c1 (stereo not shown) [Example 641]
2,< 500,CC(C)COc1cc(F)cc(S(=O)(=O)c2ccc3c(c2)OC2CNCCC32)c1 (stereo not shown) [Example 414]
3,< 500,CC(C)c1ccc(S(=O)(=O)c2ccc3c4c(oc3c2)CNCC4)cc1 [Example 195]
4,< 500,O=S(=O)(c1cccc(C(F)(F)F)c1)c1ccc2oc3c(c2c1)CCNC3 [Example 239]
5,< 500,"CCOCC1NCCc2c1oc1cc(S(=O)(=O)c3cccc(F)c3)ccc21 (racemic) [Example 33, 1-(ethoxymethyl)-7-[(3-fluorophenyl)sulfonyl]-1,2,3,4-tetrahydro[1]benzofuro[2,3-c]pyridine]"
6,< 500,CCCCC1NCCc2c1oc1cc(S(=O)(=O)c3cccc(F)c3)ccc21 (stereo not shown) [Example 506]
7,< 500,COc1ccc(OC)c(S(=O)(=O)Oc2ccc3c(c2)C2CCNCC2O3)c1 (stereo not shown) [Example 731]
8,< 500,O=S(=O)(Nc1ccc2c(c1)C1CCNCC1O2)c1cc(Cl)cc(Cl)c1 (stereo not shown) [Example 828]
9,< 500,Cc1cc(C)cc(S(=O)(=O)Oc2ccc3c(c2)C2CCNCC2O3)c1 (stereo not shown) [Example 705]
10,< 500,O=S(=O)(c1ccccc1Cl)c1cccc2c1OC1CNCCC21 (stereo not shown) [Example 183]
11,< 500,"CC(=O)NCCC1NCCc2c1oc1cc(S(=O)(=O)c3cccc(F)c3)ccc21 (racemic) [Example 536, N-(2-{7-[(3-fluorophenyl)sulfonyl]-1,2,3,4-tetrahydro[1]benzofuro[2,3-c]pyridin-1-yl}ethyl)acetamide]"
12,< 500,Cc1cc(S(=O)(=O)c2ccc3c(c2)OC2CNCCC32)ccc1F (stereo not shown) [Example 137]
13,< 500,O=S(=O)(Oc1ccc2c(c1)C1CCNCC1O2)c1cccc2ccccc12 (stereo not shown) [Example 720]
14,< 500,O=S(=O)(c1ccc2c(c1)OC1CNCCC21)c1cccc(F)c1F (stereo not shown) [Example 388]
15,< 500,"Cc1cccc(S(=O)(=O)c2ccc3c4c(oc3c2)CNCC4)n1 [Example 343, 7-[(6-methylpyridin-2-yl)sulfonyl]-1,2,3,4-tetrahydro[1]benzofuro[2,3-c]pyridine]"
16,< 500,O=S(=O)(Oc1ccc2c(c1)OC1CNCCC21)c1cccc(F)c1 (stereo not shown) [Example 643]
17,< 500,"CC(C)Oc1cccc(S(=O)(=O)c2ccc3c4c(oc3c2)C2(CCOC2)NCC4)c1 (single isomer, unassigned) [Example 32, 7-{[3-(propan-2-yloxy)phenyl]sulfonyl}-3,4,4′,5′-tetrahydro-2H-spiro[1-benzofuro[2,3-c]pyridine-1,3′-furan]]"
18,< 500,O=S(=O)(Nc1ccc2c(c1)C1CCNCC1O2)c1ccc2ccccc2c1 (stereo not shown) [Example 819]

row,Ki [nM],SMILES
1,< 500,CC(C)CN1CCc2c(oc3cc(S(=O)(=O)c4cccc(Cl)c4)ccc23)C1 [Example 600]
2,< 500,"O=S(=O)(c1ccc2c3c(oc2c1)[C@]1(CCOC1)NCC3)c1cc(F)ccc1F (single isomer, unassigned) [Example 111]"
3,< 500,O=S(=O)(c1cc(F)cc(F)c1)c1ccc2c(c1)OC1CNCCC21 (stereo not shown) [Example 158]
4,< 500,O=S(=O)(c1ccc2c(c1)OC1CNCCC21)c1cccnc1C(F)(F)F (stereo not shown) [Example 423]
5,< 500,O=S(=O)(c1cccc(Cl)c1)c1ccc2c3c(oc2c1)C1(CCOC1)NCC3 (stereo not shown) [Example 306]
6,< 500,"O=S(=O)(c1cccc(Cl)c1)c1ccc2c3c([nH]c2c1)C1(CCCOC1)NCC3 (single isomer, unassigned) [Example 316]"
7,< 500,CCCCOc1cccc(S(=O)(=O)c2ccc3c(c2)OC2CNCCC32)c1 (stereo not shown) [Example 554]
8,< 500,O=S(=O)(c1cccc(Cl)c1)c1ccc2c3c(oc2c1)C(CCC(F)(F)F)NCC3 (stereo not shown) [Example 522]
9,< 500,O=S(=O)(c1cc(F)cc(Cl)c1)c1ccc2c(c1)OC1CNCCC21 (stereo not shown) [Example 157]
10,< 500,O=S(=O)(c1ccc2c3c(oc2c1)CNCC3)c1cc(F)ccc1F [Example 223]
11,< 500,"O=S(=O)(c1ccccc1)c1ccc2c3c([nH]c2c1)C1(CCOCC1)NCC3 [Example 545, 7-(Phenylsulfonyl)-2,2′,3,3′,4,5′,6′,9-octahydrospiro[beta-carboline-1,4′-pyran]trifluoroacetate]"
12,< 500,"CC1(C2CC2)NCCc2c1oc1cc(S(=O)(=O)c3cccc(F)c3)ccc21 (racemic) [Example 29, 1-cyclopropyl-7-[(3-fluorophenyl)sulfonyl]-1-methyl-1,2,3,4-tetrahydro[1]benzofuro[2,3-c]pyridine]"
13,< 500,O=S(=O)(Oc1ccc2c(c1)C1CCNCC1O2)c1cc2ccccc2s1 (stereo not shown) [Example 724]
14,< 500,O=S(=O)(c1ccc2c(c1)OC1CNCCC21)c1c(F)c(F)cc(F)c1F (stereo not shown) [Example 150]
15,< 500,O=S(=O)(c1ccc2c3c(oc2c1)CNCC3)c1ccccc1Cl [Example 230]
16,< 500,Cc1c(S(=O)(=O)Oc2ccc3c(c2)OC2CNCCC32)sc2ccc(Cl)cc12 (stereo not shown) [Example 797]
17,< 500,"O=S(=O)(c1cccc(F)c1)c1ccc2c3c(oc2c1)C1(CCOCC1F)NCC3 (single isomer, unassigned) [Example 54, 3′-Fluoro-7-[(3-fluorophenyl)sulfonyl]-2′,3,3′,4,5′,6′-hexahydro-2H-spiro[1-benzofuro[2,3-c]pyridine-1,4′-pyran]]"

# Same assay, conditions: membranes of CHO-K1 cells with recombinant human 5-HT6, 4 nM [3H]LSD; specific data; read-out: h5-HT6 (Ki)
row,Ki [nM],SMILES
1,6.6,"Cc1cccc(S(=O)(=O)c2ccc3c4c(oc3c2)CNCC4)n1 [Example 343, 7-[(6-methylpyridin-2-yl)sulfonyl]-1,2,3,4-tetrahydro[1]benzofuro[2,3-c]pyridine]"
